Source: article PMC7026418, “The kinase polypharmacology landscape of clinical PARP inhibitors” (Scientific Reports, 2020)
Like-named read-outs stand apart in the source and are kept apart here. One block for each molecule: values may come before it.

Columns and labels:
Assay in all cases: biochemical
Design in all cases: DiscoveRx KINOMEscan active site-directed competition binding; percent of control kinase bound to immobilised ligand
[1] = target: T1, RPS6KA4(Kin.Dom.2-C-terminal) (Homo sapiens, UniProt O75676)
T1 construct: Kin.Dom.2-C-terminal

YANK1 = target: T2, YANK1 (Homo sapiens, UniProt Q8WU08)
T2 construct: gene STK32A

TLK1 = target: T3, TLK1 (Homo sapiens, UniProt Q9UKI8)
T3 sequence (Q9UKI8 1-766): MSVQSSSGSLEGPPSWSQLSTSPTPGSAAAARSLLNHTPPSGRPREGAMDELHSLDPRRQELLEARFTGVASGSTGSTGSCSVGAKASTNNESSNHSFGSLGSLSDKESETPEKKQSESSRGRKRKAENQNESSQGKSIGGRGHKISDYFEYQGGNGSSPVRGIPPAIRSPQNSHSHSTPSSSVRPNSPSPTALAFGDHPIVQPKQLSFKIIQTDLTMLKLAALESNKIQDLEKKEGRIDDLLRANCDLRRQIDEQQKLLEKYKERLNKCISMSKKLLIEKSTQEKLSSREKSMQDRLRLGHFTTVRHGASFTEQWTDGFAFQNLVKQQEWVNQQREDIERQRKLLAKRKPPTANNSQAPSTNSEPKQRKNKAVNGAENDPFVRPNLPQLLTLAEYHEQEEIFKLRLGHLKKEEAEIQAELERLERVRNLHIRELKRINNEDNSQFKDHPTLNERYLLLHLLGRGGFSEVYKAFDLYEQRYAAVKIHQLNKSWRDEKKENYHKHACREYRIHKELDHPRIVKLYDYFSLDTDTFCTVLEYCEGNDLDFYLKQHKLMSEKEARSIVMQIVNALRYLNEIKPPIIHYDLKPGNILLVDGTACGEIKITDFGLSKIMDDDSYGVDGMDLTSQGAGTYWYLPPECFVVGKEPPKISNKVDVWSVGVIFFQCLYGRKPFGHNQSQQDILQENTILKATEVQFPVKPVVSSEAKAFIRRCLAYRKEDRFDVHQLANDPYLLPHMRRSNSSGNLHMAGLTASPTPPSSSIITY

CAMK4 = target: T4, CAMK4 (Homo sapiens, UniProt Q16566)
T4 sequence (Q16566 1-473): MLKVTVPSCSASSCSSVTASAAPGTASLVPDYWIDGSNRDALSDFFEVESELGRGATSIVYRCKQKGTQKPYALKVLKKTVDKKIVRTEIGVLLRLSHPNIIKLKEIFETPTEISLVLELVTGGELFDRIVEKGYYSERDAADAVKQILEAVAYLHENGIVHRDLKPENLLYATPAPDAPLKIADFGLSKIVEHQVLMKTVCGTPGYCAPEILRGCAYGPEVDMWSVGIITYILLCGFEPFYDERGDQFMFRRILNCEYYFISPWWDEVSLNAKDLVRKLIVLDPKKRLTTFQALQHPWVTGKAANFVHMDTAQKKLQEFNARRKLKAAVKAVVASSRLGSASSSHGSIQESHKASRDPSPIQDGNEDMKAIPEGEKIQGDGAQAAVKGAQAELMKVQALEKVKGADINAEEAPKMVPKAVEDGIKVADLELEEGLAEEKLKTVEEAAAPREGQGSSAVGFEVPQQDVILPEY

PIK3CA(H1047Y) = PIK3CA(H1047Y) (Homo sapiens, UniProt P42336, H1047Y)
PRP4 = target: T5, PRP4 (Homo sapiens, UniProt Q13523)
T5 construct: gene PRPF4B

PRKCI = target: T6, PRKCI (Homo sapiens, UniProt P41743)
T6 sequence (P41743 1-596): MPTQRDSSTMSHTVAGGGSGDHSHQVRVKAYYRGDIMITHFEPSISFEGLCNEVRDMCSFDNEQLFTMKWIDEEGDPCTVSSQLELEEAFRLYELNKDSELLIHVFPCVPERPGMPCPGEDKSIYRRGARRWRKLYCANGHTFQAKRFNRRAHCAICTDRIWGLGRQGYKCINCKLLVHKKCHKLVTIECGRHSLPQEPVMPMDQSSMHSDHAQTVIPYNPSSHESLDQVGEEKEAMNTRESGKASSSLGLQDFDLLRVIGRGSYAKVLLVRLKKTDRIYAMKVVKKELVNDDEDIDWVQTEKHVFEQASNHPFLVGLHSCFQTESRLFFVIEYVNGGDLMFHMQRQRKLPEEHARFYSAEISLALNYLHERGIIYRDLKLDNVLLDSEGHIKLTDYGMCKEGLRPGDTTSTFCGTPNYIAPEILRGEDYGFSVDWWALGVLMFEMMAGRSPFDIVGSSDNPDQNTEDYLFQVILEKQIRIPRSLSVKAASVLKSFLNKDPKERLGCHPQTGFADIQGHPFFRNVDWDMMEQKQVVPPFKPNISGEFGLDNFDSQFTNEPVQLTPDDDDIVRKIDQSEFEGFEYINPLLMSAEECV

MEK4 = target: T7, MEK4 (Homo sapiens, UniProt P45985)
T7 construct: gene MAP2K4
T7 sequence (P45985 1-399): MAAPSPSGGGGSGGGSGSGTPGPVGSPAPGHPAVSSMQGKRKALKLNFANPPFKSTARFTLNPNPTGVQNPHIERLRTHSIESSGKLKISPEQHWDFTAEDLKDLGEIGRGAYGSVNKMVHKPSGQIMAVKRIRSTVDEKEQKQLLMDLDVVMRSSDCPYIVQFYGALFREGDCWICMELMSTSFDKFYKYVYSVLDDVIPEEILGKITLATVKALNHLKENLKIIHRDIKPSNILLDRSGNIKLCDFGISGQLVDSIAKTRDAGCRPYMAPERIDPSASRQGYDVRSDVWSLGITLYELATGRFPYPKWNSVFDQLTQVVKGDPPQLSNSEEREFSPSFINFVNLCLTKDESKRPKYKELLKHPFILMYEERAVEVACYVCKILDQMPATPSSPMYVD

[2] = read-out: Niraparib (MK-4827) / %Ctrl @ 10000nM
[3] = read-out: Rucaparib / %Ctrl @ 10000nM, binding competition, % of control
[4] = read-out: Olaparib / %Ctrl @ 10000nM
[5] = read-out: Talazoparib (BMN 673) / %Ctrl @ 10000nM

Chain of PIK3CA(H1047Y) (P42336 whole entry H1047Y): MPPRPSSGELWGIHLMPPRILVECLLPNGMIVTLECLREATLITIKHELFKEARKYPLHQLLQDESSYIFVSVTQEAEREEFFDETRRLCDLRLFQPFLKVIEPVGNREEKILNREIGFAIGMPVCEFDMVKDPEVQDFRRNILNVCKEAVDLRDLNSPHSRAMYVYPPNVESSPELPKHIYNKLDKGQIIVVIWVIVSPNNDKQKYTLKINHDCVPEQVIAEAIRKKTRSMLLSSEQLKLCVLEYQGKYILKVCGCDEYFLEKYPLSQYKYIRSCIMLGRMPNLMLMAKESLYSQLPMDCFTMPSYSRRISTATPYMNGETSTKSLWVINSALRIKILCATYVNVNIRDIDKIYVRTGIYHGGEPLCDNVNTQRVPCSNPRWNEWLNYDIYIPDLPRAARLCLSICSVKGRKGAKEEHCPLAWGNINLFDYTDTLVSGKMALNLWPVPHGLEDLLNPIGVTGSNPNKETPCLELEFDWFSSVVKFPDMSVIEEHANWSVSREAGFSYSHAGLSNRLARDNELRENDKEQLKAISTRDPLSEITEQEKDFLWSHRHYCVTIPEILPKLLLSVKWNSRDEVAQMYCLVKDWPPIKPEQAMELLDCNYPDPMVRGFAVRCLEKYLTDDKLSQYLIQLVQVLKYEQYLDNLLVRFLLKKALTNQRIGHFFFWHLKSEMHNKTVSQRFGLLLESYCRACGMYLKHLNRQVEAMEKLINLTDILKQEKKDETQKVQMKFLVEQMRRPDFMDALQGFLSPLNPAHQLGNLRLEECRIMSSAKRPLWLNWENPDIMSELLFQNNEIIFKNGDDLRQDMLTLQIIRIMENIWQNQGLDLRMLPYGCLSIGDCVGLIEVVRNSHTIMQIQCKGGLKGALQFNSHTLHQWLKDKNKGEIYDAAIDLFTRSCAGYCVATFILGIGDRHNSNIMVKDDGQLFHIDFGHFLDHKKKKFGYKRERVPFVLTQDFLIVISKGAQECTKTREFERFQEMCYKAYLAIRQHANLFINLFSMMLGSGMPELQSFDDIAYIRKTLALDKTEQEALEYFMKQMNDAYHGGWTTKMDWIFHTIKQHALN
T5 sequence (Q13523 whole entry): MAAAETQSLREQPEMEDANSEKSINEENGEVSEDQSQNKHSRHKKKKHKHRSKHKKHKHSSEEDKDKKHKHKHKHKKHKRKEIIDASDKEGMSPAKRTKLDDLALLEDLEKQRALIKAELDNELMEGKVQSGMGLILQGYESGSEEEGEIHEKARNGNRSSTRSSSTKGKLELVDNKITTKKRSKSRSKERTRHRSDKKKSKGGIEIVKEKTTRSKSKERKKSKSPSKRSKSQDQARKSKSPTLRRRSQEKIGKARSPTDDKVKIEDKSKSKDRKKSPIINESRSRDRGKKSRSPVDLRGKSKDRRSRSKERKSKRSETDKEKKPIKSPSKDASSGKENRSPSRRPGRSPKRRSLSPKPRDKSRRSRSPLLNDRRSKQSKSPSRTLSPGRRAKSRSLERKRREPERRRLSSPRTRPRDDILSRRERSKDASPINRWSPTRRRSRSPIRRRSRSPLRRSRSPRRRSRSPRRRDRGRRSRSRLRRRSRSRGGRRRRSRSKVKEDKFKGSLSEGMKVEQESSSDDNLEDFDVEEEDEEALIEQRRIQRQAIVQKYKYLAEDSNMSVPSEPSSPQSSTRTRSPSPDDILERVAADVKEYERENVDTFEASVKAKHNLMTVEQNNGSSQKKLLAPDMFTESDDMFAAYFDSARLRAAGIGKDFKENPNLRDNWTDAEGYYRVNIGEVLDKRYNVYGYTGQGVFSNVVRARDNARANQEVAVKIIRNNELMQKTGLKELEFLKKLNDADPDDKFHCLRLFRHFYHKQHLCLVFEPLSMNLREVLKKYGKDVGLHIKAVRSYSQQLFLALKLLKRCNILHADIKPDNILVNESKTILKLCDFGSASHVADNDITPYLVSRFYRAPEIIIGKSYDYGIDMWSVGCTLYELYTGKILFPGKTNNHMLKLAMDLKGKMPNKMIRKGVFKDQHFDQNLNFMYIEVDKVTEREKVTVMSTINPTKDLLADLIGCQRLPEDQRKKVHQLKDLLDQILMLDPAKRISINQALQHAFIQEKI
T2 sequence (Q8WU08 whole entry): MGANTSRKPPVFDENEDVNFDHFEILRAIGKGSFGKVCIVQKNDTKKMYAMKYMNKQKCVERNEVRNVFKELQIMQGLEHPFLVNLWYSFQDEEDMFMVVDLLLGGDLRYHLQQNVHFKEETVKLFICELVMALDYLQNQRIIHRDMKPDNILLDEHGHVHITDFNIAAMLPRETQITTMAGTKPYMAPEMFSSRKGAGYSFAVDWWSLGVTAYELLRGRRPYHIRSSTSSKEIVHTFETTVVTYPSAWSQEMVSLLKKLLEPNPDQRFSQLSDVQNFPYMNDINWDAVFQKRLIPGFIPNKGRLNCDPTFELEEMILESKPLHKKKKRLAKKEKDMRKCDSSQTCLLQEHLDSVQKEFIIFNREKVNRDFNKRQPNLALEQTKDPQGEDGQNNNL
T1 sequence (O75676 whole entry): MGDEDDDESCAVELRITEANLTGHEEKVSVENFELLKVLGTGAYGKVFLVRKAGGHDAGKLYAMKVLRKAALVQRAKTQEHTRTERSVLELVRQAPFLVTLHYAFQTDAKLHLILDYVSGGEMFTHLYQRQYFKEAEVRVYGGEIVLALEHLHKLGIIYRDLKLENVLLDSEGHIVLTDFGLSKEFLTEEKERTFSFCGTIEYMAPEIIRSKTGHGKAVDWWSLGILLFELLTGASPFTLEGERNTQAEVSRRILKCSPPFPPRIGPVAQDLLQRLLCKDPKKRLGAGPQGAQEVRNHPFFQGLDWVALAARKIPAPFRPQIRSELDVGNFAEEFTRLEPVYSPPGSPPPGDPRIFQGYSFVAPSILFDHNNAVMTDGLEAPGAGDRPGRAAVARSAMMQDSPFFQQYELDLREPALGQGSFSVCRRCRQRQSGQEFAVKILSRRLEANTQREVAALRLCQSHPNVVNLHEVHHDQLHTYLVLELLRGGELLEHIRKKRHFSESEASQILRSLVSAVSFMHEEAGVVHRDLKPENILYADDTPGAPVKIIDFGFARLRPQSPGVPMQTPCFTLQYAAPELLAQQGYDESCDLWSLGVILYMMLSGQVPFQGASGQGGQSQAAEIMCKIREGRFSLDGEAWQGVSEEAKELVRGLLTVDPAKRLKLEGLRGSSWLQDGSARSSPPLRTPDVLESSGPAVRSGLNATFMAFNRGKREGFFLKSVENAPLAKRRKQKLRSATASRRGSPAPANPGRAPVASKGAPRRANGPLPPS

Compound: NC(=O)c1cccc2cn(-c3ccc([C@@H]4CCCNC4)cc3)nc12 [Niraparib]
- percent of control binding at 10 µM [1, 2]: 80%
- percent of control binding at 10 µM (YANK1; [2]): 99%
- percent of control binding at 10 µM (TLK1; [2]): 85%
- percent of control binding at 10 µM (CAMK4; [2]): 100%
- percent of control binding at 10 µM (PIK3CA(H1047Y); [2]): 66%
- percent of control binding at 10 µM (PRP4; [2]): 97%
- percent of control binding at 10 µM (PRKCI; [2]): 85%
- percent of control binding at 10 µM (MEK4; [2]): 82%

- percent of control binding at 10 µM [1, 3]: 91%
- percent of control binding at 10 µM (YANK1; [3]): 69%
- percent of control binding at 10 µM (TLK1; [3]): 94%
- percent of control binding at 10 µM (CAMK4; [3]): 94%
- percent of control binding at 10 µM (PIK3CA(H1047Y); [3]): 75%
- percent of control binding at 10 µM (PRP4; [3]): 85%
- percent of control binding at 10 µM (PRKCI; [3]): 72%
- percent of control binding at 10 µM (MEK4; [3]): 69%
Compound: CNCc1ccc(-c2[nH]c3cc(F)cc4c3c2CCNC4=O)cc1 [Rucaparib]

- percent of control binding at 10 µM [1, 4]: 92%
- percent of control binding at 10 µM (YANK1; [4]): 86%
- percent of control binding at 10 µM (TLK1; [4]): 94%
- percent of control binding at 10 µM (CAMK4; [4]): 93%
- percent of control binding at 10 µM (PIK3CA(H1047Y); [4]): 100%
- percent of control binding at 10 µM (PRP4; [4]): 82%
- percent of control binding at 10 µM (PRKCI; [4]): 100%
- percent of control binding at 10 µM (MEK4; [4]): 80%
Compound: O=C(c1cc(Cc2n[nH]c(=O)c3ccccc23)ccc1F)N1CCN(C(=O)C2CC2)CC1 [Olaparib]

- percent of control binding at 10 µM [1, 5]: 100%
- percent of control binding at 10 µM (YANK1; [5]): 100%
- percent of control binding at 10 µM (TLK1; [5]): 99%
- percent of control binding at 10 µM (CAMK4; [5]): 83%
- percent of control binding at 10 µM (PIK3CA(H1047Y); [5]): 89%
- percent of control binding at 10 µM (PRP4; [5]): 100%
- percent of control binding at 10 µM (PRKCI; [5]): 78%
- percent of control binding at 10 µM (MEK4; [5]): 99%
Compound: Cn1ncnc1[C@H]1c2n[nH]c(=O)c3cc(F)cc(c23)N[C@@H]1c1ccc(F)cc1 [Talazoparib]
